Results on 7 compounds are retold here after patent publication US9957498B2, “Photoremovable protecting groups and uses thereof” (Iowa State University Research Foundation, Inc., priority 2015, dated 2018).

In data set [1] the test system is S2 cells. Briefly: Trypan blue exclusion cytotoxicity assay, S2. It counts as cell-based, Drosophila. Particulars: 20 μM, one hour incubation, ± standard deviation from two measurements. The protocol: (§1) Live cell experiments were performed with HeLa (human), GM07373 (bovine) or S2 (Drosophila) cells. HeLa and GM07373 cells were cultured in DMEM medium supplemented with 10% fetal bovine serum, […] (Fisher Scientific, Pittsburgh, Pa.) in a 37° C. water jacketed CO2 incubator (Thermo Scientific, Waltham, Mass.). HeLa and GM07373 cells were sub-cultured using 0.25% (w/v) trypsin-EDTA (Life Technology, Carlsbad, Calif.) solution every two days. Cells were sub-cultured onto custom-made glass bottom culture dishes two days before the microscopy experiment. On the day of the microscopy experiment, the growth media was replaced with 20 μM compound 12b in serum-free DMEM for one hour. Cells were rinsed with the imaging medium (pH=7.2, 155 mM NaCl, 5 mM KCl, 2 mM CaCl2, 1 mM MgCl2, 2 mM NaH2PO4, 10 mM HEPES and 10 mM Glucose) prior to collecting microscopy images. […]
(§2) HeLa, GM07373 or S2 cells were incubated with 20 μM of the compound 12b for an hour. Cytotoxicity of the compound was measured using trypan blue exclusion assays. […] The number of viable cells that excluded the dye was counted using a hemacytometer (Hausser Bright-Line, Hausser scientific, Horsham, Pa.) and an optical microscope.

In data set [2] the test system is HeLa cells. Briefly: Trypan blue exclusion cytotoxicity assay, HeLa. It counts as cell-based, human. Particulars: 20 μM, one hour incubation, ± standard deviation from two measurements. The protocol: as §1, §2
For data set [3], the system named is GM07373 cells. The experiment in a line: Trypan blue exclusion cytotoxicity assay, GM07373. It counts as cell-based, bovine. Particulars: 20 μM, one hour incubation, ± standard deviation from two measurements. The protocol: as §1, §2
Data set [4] in a line: Quantum yield of photorelease of acetic acid (ferrioxalate actinometry, 532 nm laser, LC-UV). It counts as physicochemical. The settings on record: for Φ (quantum yield of acetic acid release): MeOH, 532 nm ND:YAG laser, LC-UV. The protocol:
(§3) The observed substrate release rate as a function of photolysis time is quantified by the quantum efficiency parameter (ϵΦ), which is the product of the extinction coefficient at the irradiation wavelength (ϵ) and the quantum yield (Φ). Extinction coefficients for compounds 1-6 were determined by UV-Vis spectroscopy (see Table 1).
To compute the quantum yields of photorelease (Φ), the flux of a 532 nm laser excitation beam (ND:YAG, 1st harmonic) was determined using potassium ferrioxalate actinometry. Release of acetic acid as a function of laser irradiation time in methanol was followed by quantitative LC/UV methods known in the art. Each quantum yield reported is the average of 3 separate runs. […] Additionally, repeating the quantum yield measurement for compound 2 on a different day with a different laser power setting (in triplicate) gave an identical value for the quantum yield, indicating reproducibility.
All quantum yields were carried out using a liquid-phase potassium ferrioxalate actinometer. The actinometer was prepared by mixing three volumes of 1.5 M K2C2O4 solution with one volume of 1.5 M FeCl3 solution in water, and stirring in complete darkness. The precipitated K3Fe(C2O4)3.3H2O was then recrystallized three times from hot water and dried in a current of warm air. To prepare 1 L of 0.15M K3Fe(C2O4)3.3H2O solution, 73.68 g of the precipitate was dissolved in 800 mL water; 100 mL 1.0 N sulfuric acid was added and filled to the mark with water, again in complete darkness. For all quantitative work the preparation and manipulation of the ferrioxalate solutions must be carried out in a darkroom, using a red light. The light intensity in a photochemical reaction is determined by irradiating ferrioxalate solution and monitoring the subsequent change in absorbance at 510 nm. Irradiation was conducted using 532 nm excitation from a ND:YAG laser source (1st harmonic). Autopipettes were used to ensure all volumes were accurately measured.
For each actinometric measurement a methacrylate cuvette was filled with 3 mL of 0.15 M ferrioxalate solution. The cell was placed in the sample holder, stirred and irradiated for a set period of time (0, 0.25, 0.50, 0.75, 1, 2, 3 minutes). After the allocated irradiation time the solution was transferred into a 25 mL volumetric flask, to which was added in sequence 6 mL of a developer solution (0.05 mol % phenanthroline/0.75 M acetate/0.2 M sulfuric acid), 5 mL 1 M sodium fluoride solution in water. The sample was diluted to 25 mL with water, mixed and allowed to incubate for 10 minutes. After the incubation period was complete, 3 mL of sample was transferred into 1 cm methacrylate cuvette and the absorbance (at 510 nm) read using a spectrophotometer.
Using iron sulfate standard solutions between 1.6×10^−5 M to 9.6×10^−5 M, a standard curve based on absorbance of the ferrioxalate/phenanthroline complex at 510 nm was compiled and the irradiated samples absorbances were compared to yield the concentration iron (II) cleaved via photolysis within the timescale of experiment.
The flux of the laser was calculated the following equations:
[formula] where I is the flux (Einstein/L/s), Δn is the Fe^2+ photogenerated (mole), φ is the quantum yield at 532 nm, V1 is the irradiated volume (mL), and t=irradiation time (seconds);
[formula] where V2 is the volume taken from the irradiated sample (mL), V3 is the volume after dilution for concentration determination (mL), and CT is the concentration of Fe^2+ after dilution (M); and
[formula] where abs is the absorbance at 510 nm, ϵ is the molar absorptivity (M^−1 cm^−1) and l is the path length.
Due to the low absorbance of the potassium ferrioxalate solution at 532 nm, a correction was made to account for an absorbance less than 2 (multiplied the flux by 0.0967).
For each compound, a solution of 1000 ppm was prepared using 1 mg of sample and dissolving in 1 mL methanol. […]

Data set [5] is described as follows: UV-Vis spectroscopy: absorption maximum and extinction coefficient. It is filed as physicochemical. The procedure: as §3
Data set [6] is described as follows: Fluorescence emission of compound solutions. It is filed as physicochemical. An excerpt: FIG. 2 is a plot of normalized fluorescence as a function of wavelength for compounds 1-6 described herein.
See, e.g., Petr Klán et al., Chem. Rev. 113: 119-191 (2013), which is incorporated by reference as if fully set forth herein. Even thought the quantum yields for compounds 1-4 are lower than those for some o-nitrobenzyl photocaged structures, this lower quantum yield is compensated by the much higher extinction coefficients of the BODIPY chromophores compared to the o-nitrobenzyl chromophore, leading to reasonable quantum efficiencies. […] While not being bound by any particular theory, it is plausible that the higher quantum yield of compound 6 occurs because the iodine atoms promote intersystem crossing to a triplet state, which are usually longer lived than […]. Given that the triplet state of the corresponding carbocation is the computed ground state by ˜5 kcal/mol, it is certainly energetically reasonable that heterolysis could occur in the triplet excited state leading to the triplet “carbocation,” similar to the phenacyl photocage derivatives described by Givens et al., Can. J. Chem. 89: 364-384 (2011), which is incorporated by reference as if fully set forth herein.

“3,5-Bis(4-(1,4,7,10-tetraoxaundecyl)styryl-1,7-dimethyl-8-(4-nitrobenzoato)pyrromethene fluoroborate [Compound 12b]”: the “% of Viable cells” value in data set [1] amounted to 93 ± 2%; in data set [2], 92 ± 5%; in data set [3], 92 ± 5%.

For the compound “8-Acetoxymethyl-1,3,5,7-tetramethyl pyrromethene fluoroborate [Compound 2]”, the “Φ (quantum yield of photorelease)” value in data set [4] (Table 1, acetic acid release, 532 nm laser, methanol, average of 3 runs) is reported as 9.9 ×10^−4. Also, the “εΦ (quantum efficiency)” value in data set [4] (Table 1, product of extinction coefficient and quantum yield) was 70 M⁻¹ cm⁻¹; in data set [4] (Table 2), 70 M⁻¹ cm⁻¹. Besides, the “Φ (quantum yield of acetic acid release)” value in data set [4] (Table 2, average of 3 runs) is 9.9 ×10^−4. The λmax in data set [5] (Table 1) and in data set [5] (Table 2) was 515 nm each time. In addition, the ε was found to be 71000 M⁻¹ cm⁻¹ in data set [5] (Table 1, extinction coefficient by UV-Vis spectroscopy) and 71000 M⁻¹ cm⁻¹ in data set [5] (Table 2). Further, the λem in data set [6] (Table 1) and in data set [6] (Table 2) was 526 nm each time.

As to `COc1ccc(/C=C/c2cc(C)c3n2[B-](F)(F)[N+]2=C(C)C=C(C)C2=C3COC(C)=O)cc1` [Compound 7, 8-Acetoxymethyl-3-(4-methoxy)styryl-1,5,7-trimethyl pyrromethene fluoroborate], the “εΦ (quantum efficiency)” value in data set [4] (Table 2) came to 6.0 M⁻¹ cm⁻¹. For the same compound, the “Φ (quantum yield of acetic acid release)” value in data set [4] (Table 2, average of 3 runs) is given as 9.8 ×10^−4. In addition, in data set [5] (Table 2), the ε came out at 61000 M⁻¹ cm⁻¹ and the λmax came out at 586 nm. For the same compound, the λem in data set [6] (Table 2) is 607 nm.

`CC(=O)OCC1=C2C(C)=CC(C)=[N+]2[B-](F)(F)n2c(C=Cc3ccc(N(C)C)cc3)cc(C)c21` [Compound 8, 8-Acetoxymethyl-3-(4-dimethylamino)styryl-1,5,7-trimethyl pyrromethene fluoroborate]: the “εΦ (quantum efficiency)” value in data set [4] (Table 2) was 4.1 M⁻¹ cm⁻¹. The “Φ (quantum yield of acetic acid release)” value in data set [4] (Table 2, average of 3 runs) is 6.9 ×10^−4. In data set [5] (Table 2), the ε came out at 60000 M⁻¹ cm⁻¹ and the λmax stood at 633 nm. The λem in data set [6] (Table 2) is given as 650 nm.

Take `CC(=O)OCC1=C2C(C)=CC(C=Cc3ccccc3)=[N+]2[B-](F)(F)n2c(C=Cc3ccccc3)cc(C)c21` [Compound 9, 8-Acetoxymethyl-3,5-bisstyryl-1,7-dimethyl pyrromethene fluoroborate]: in data set [4] (Table 2), the “εΦ (quantum efficiency)” value was 2.9 M⁻¹ cm⁻¹. Further, the “Φ (quantum yield of acetic acid release)” value in data set [4] (Table 2, average of 3 runs) is 4.5 ×10^−4. Moreover, in data set [5] (Table 2), the ε was 65000 M⁻¹ cm⁻¹ and the λmax is 640 nm. Also, in data set [6] (Table 2), the λem is recorded as 656 nm.

`COc1ccc(/C=C/C2=[N+]3C(=C(COC(C)=O)c4c(C)cc(/C=C/c5ccc(OC)cc5)n4[B-]3(F)F)C(C)=C2)cc1` [Compound 10a, 8-Acetoxymethyl-3,5-bis(4-methoxy)styryl-1,7-dimethyl pyrromethene fluoroborate]: the “εΦ (quantum efficiency)” value in data set [4] (Table 2) amounted to 2.7 M⁻¹ cm⁻¹. In data set [4] (Table 2, average of 3 runs), the “Φ (quantum yield of acetic acid release)” value is reported as 4.1 ×10^−4. Moreover, in data set [5] (Table 2), the ε stood at 65000 M⁻¹ cm⁻¹ and the λmax was determined as 661 nm. Besides, in data set [6] (Table 2), the λem turned out to be 684 nm.

In data set [5] (Table 2), `COCCOCCOCCOc1ccc(C=CC2=[N+]3C(=C(CO)c4c(C)cc(C=Cc5ccc(OCCOCCOCCOC)cc5)n4[B-]3(F)F)C(C)=C2)cc1` [Compound 11b, 3,5-Bis(4-(1,4,7,10-tetraoxaundecyl)styryl-1,7-dimethyl-8-hydroxymethylpyrromethene fluoroborate] showed a ε of 120000 M⁻¹ cm⁻¹ and a λmax of 667 nm.
